Experiment [1] has as its system p-IKKa levels in L363 (NIK translocated multiple myeloma) cells. The experiment can be described thus: Effect of compounds on p-IKKa levels in L363 (NIK translocated multiple myeloma) cells (AlphaLISA SureFire Ultra p-IKKa Ser176/180). The format is cell-based, human. Conditions: average if tested more than once, read-out: Assay 2 IC50. An outline of the steps: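 L363 multiple myeloma cells, BAFF-stimulated overnight (250 ng/ml), then 6 h at 37 °C with compound (11-point 1:3 series, 0.3% DMSO) plus BAFF and 10 μM MG132. p-IKKa Ser176/180 read by AlphaLISA SureFire Ultra; IC50 from sigmoidal fit normalised to stimulated and unstimulated controls.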

Experiment [2] has as its target Recombinant Human NF-kappaB-Inducing Kinase (NIK/MAP3K14) (Homo sapiens, UniProt Q99558). In words: Inhibition of auto-phosphorylation of recombinant human NIK/MAP3K14 activity (AlphaScreen). It counts as biochemical. Conditions: 5 μM ATP, 1 nM NIK, average if tested more than once. An outline of the steps: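 GST-tagged NIK (1 nM) auto-phosphorylation with 5 μM ATP, 2 h at 25 °C, pH 7.5 Tris buffer, 0.7% DMSO; stopped with anti-phospho-IKK Ser176/180 antibody and read by AlphaScreen. Signal normalized to full-activity and no-enzyme/no-ATP controls; IC50 from sigmoidal fit of % inhibition vs log concentration.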
In general terms: Bead proximity is the source of the signal in Alpha formats.

The mark [3] stands for this setting: Homo sapiens, L-363, p-IKKa levels in L363 cells.

Structures are written as SMILES. Read-outs that look alike come from different tables or passages of the source. A value given as a limit tells only on which side of the number the result lay.

Recombinant Human NF-kappaB-Inducing Kinase (NIK/MAP3K14), sequence (Q99558 whole entry): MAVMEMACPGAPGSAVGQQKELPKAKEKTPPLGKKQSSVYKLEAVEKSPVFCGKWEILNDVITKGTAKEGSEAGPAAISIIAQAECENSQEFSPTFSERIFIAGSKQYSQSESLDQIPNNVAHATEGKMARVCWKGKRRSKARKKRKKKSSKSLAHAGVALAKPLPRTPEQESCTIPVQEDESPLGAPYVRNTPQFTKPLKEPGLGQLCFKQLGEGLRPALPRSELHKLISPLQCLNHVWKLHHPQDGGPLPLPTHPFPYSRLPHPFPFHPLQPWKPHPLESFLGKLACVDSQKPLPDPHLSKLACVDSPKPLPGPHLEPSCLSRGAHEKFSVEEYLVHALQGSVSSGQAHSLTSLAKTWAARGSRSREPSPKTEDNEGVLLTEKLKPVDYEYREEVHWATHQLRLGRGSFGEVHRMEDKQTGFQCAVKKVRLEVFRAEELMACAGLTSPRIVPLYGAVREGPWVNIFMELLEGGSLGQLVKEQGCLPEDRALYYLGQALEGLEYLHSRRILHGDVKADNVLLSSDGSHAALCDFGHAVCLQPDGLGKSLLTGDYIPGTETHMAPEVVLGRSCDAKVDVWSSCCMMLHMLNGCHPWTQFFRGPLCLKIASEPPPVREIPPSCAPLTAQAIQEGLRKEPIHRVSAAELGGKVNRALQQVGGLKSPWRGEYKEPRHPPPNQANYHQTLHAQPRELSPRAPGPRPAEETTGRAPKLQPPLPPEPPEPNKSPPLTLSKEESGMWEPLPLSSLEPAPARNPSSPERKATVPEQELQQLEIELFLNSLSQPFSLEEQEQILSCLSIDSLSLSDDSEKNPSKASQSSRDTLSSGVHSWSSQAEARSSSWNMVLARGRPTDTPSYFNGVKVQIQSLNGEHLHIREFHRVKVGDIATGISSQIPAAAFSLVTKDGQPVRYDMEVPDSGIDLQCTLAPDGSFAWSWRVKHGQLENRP

`CCOc1cn(C)nc1Nc1nccc(-c2csc(-c3cccc([C@]4(O)CCN(C)C4=O)c3)n2)n1` [Example 78, (R)-3-(3-(4-(2-((4-ethoxy-1-methyl-1H-pyrazol-3-yl)amino)pyrimidin-4-yl)thiazol-2-yl)phenyl)-3-hydroxy-1-methylpyrrolidin-2-one]: the IC50 in experiment [1] (setting [3]) and in experiment [2] was less than 100 nM throughout.
Regarding `CN1CC[C@@](O)(c2cccc(-c3nc(-c4ccnc(Nc5cn(C)nc5OC(F)F)n4)cs3)c2)C1=O` [Example 99, (R)-3-(3-(4-(2-((3-(difluoromethoxy)-1-methyl-1H-pyrazol-4-yl)amino)pyrimidin-4-yl)thiazol-2-yl)phenyl)-3-hydroxy-1-methylpyrrolidin-2-one], the IC50 in experiment [1] (setting [3]) and in experiment [2] was less than 100 nM each time.
For `CN1CC[C@@](O)(c2cccc(-c3nc(-c4ccnc(NC5COC5)n4)cs3)c2)C1=O` [Example 230], the IC50 (commonly the concentration that inhibits the measured activity by half) was 100 to 500 nM in experiment [1] (setting [3]) and less than 100 nM in experiment [2].
The like results for `CN1CC[C@@](O)(c2cccc(-c3nc(-c4ccnc(NCCc5cn(C)cn5)n4)cs3)c2)C1=O` [Example 211] were, in that order, more than 501 nM and more than 501 nM.
On to `CCn1ccc(Nc2nccc(-c3csc(-c4cccc([C@]5(O)CCN(C)C5=O)c4)n3)n2)n1` [Example 76, (R)-3-(3-(4-(2-((1-ethyl-1H-pyrazol-3-yl)amino)pyrimidin-4-yl)thiazol-2-yl)phenyl)-3-hydroxy-1-methylpyrrolidin-2-one], for which the IC50 in experiment [1] (setting [3]) was 100 to 500 nM; in experiment [2], less than 100 nM.
In the same order, the values of `CN1CC[C@@](O)(c2cccc(-c3nc(-c4ccnc(N[C@H]5CCC[C@H](O)C5)n4)cs3)c2)C1=O` [Example 254] are more than 501 nM and 100 to 500 nM.
Turning to `CN1CC[C@@](O)(c2cncc(-c3ccn(-c4ccnc(Nc5cnn6ccccc56)n4)n3)c2)C1=O` (single isomer, unassigned) [Example 146, (R)-3-hydroxy-1-methyl-3-(5-(1-(2-(pyrazolo[1,5-a]pyridin-3-ylamino)pyrimidin-4-yl)-1H-pyrazol-3-yl)pyridin-3-yl)pyrrolidin-2-one or (S)-3-hydroxy-1-methyl-3-(5-(1-(2-(pyrazolo[1,5-a]pyridin-3-ylamino)pyrimidin-4-yl)-1H-pyrazol-3-yl)pyridin-3-yl)pyrrolidin-2-one], the IC50 in experiment [1] (setting [3]) and in experiment [2] was less than 100 nM each time.
In the case of `CC(Nc1nccc(-c2nc(-c3cc([C@]4(O)CCN(C)C4=O)ccn3)cs2)n1)c1cnn(C)c1` (single isomer, unassigned) [Example 158, (R)-3-hydroxy-1-methyl-3-(2-(2-(2-(((R,S)-1-(1-methyl-1H-pyrazol-4-yl)ethyl)amino)pyrimidin-4-yl)thiazol-4-yl)pyrrolid-4-yl)pyrrolidine-2-one or (S)-3-hydroxy-1-methyl-3-(2-(2-(2-(((R,S)-1-(1-methyl-1H-pyrazol-4-yl)ethyl)amino)pyrimidin-4-yl)thiazol-4-yl)pyrrolid-4-yl)pyrrolidine-2-one], the IC50 in experiment [1] (setting [3]) was 100 to 500 nM; in experiment [2], less than 100 nM.
Turning to `CN1CC[C@@](O)(c2cccc(-c3nc(-c4ccnc(NCCCOCC(F)(F)F)n4)cs3)c2)C1=O` [Example 238], the results for the half-maximal inhibitory concentration (IC50) in experiment [1] (setting [3]) and in experiment [2] were more than 501 nM and 100 to 500 nM, respectively.
On to `CN1CC[C@@](O)(c2cccc(-c3nc(-c4ccnc(NCc5ccnn5C)n4)cs3)c2)C1=O` [Example 197], for which the IC50 was more than 501 nM in experiment [1] (setting [3]) and less than 100 nM in experiment [2].
As for `CC(Nc1nccc(-c2nc(-c3cccc(C4(O)CCN(C)C4=O)c3)cs2)n1)c1cnn(C)c1` (single isomer, unassigned) [Example 40], the IC50 was more than 501 nM in experiment [1] (p-IKKa levels in L363 cells) and less than 100 nM in experiment [2].
In the case of `CN1CC[C@@](O)(c2cccc(-c3nc(-c4ccnc(Nc5cc(C(F)(F)F)nn5C)n4)cs3)c2)C1=O` [Example 281, (R)-3-Hydroxy-1-methyl-3-(3-(4-(2-((1-methyl-3-(trifluoromethyl)-1H-pyrazol-5-yl)amino)pyrimidin-4-yl)thiazol-2-yl)phenyl)pyrrolidin-2-one], the IC50 in experiment [1] (setting [3]) was more than 501 nM; in experiment [2] it was less than 100 nM.
For `Cc1cc(Nc2nccc(-c3nc(-c4cccc([C@]5(O)CCN(C)C5=O)c4)cs3)n2)n(C)n1` [Example 81, (R)-3-(3-(2-(2-((1,3-dimethyl-1H-pyrazol-5-yl)amino)pyrimidin-4-yl)thiazol-4-yl)phenyl)-3-hydroxy-1-methylpyrrolidin-2-one], the IC50 in experiment [1] (setting [3]) was more than 501 nM; in experiment [2], 100 to 500 nM.
The like results for `CN1CC[C@@](O)(c2cccc(-c3nc(-c4ccnc(NCc5cnccn5)n4)cs3)c2)C1=O` [Example 194] were, in that order, more than 501 nM and 100 to 500 nM.
On to `Cc1nn(CC(F)F)cc1Nc1nccc(-n2ccc(-c3cc([C@]4(O)CCN(C)C4=O)ccn3)n2)n1` [Example 292, (R)-3-(2-(1-(2-((1-(2,2-Difluoroethyl)-3-methyl-1H-pyrazol-4-yl)amino)pyrimidin-4-yl)-1H-pyrazol-3-yl)pyridin-4-yl)-3-hydroxy-1-methylpyrrolidin-2-one], for which the IC50 in experiment [1] (setting [3]) and in experiment [2] was less than 100 nM in each case.
As for `CC(Nc1nccc(-c2csc(-c3cccc([C@]4(O)CCN(C)C4=O)c3)n2)n1)c1ncco1` (some centres unmarked) [Example 199], the IC50 in experiment [1] (setting [3]) is more than 501 nM; in experiment [2], less than 100 nM.
The like results for `CN1CC[C@@](O)(c2cccc(-c3nc(-c4ccnc(NC5CCC5)n4)cs3)c2)C1=O` [Example 131, (R)-3-(3-(4-(2-(cyclobutylamino)pyrimidin-4-yl)thiazol-2-yl)phenyl)-3-hydroxy-1-methylpyrrolidin-2-one] were, in that order, more than 501 nM and less than 100 nM.
`CN1CC[C@@](O)(c2cccc(-c3csc(-c4ccnc(Nc5cnn(C(CO)CO)c5)n4)n3)c2)C1=O` [Example 44, (R)-3-(3-(2-(2-((1-(1,3-dihydroxypropan-2-yl)-1H-pyrazol-4-yl)amino)pyrimidin-4-yl)thiazol-4-yl)phenyl)-3-hydroxy-1-methylpyrrolidin-2-one]: the IC50 is more than 501 nM in experiment [1] (setting [3]) and less than 100 nM in experiment [2].
In the same order, the values of `CN1CC[C@@](O)(c2cccc(-c3csc(-c4ccnc(Nc5cnn(CC(C)(C)O)c5)n4)n3)c2)C1=O` [Example 89, (R)-3-hydroxy-3-(3-(2-(2-((1-(2-hydroxy-2-methylpropyl)-1H-pyrazol-4-yl)amino)pyrimidin-4-yl)thiazol-4-yl)phenyl)-1-methylpyrrolidin-2-one] are less than 100 nM and less than 100 nM.
In the same order, the values of `CN1CC[C@@](O)(c2cccc(-c3csc(-c4ccnc(Nc5cnn(C)c5)n4)n3)c2)C1=O` [Example 79, (R)-3-hydroxy-1-methyl-3-(3-(2-(2-((1-methyl-1H-pyrazol-4-yl)amino)pyrimidin-4-yl)thiazol-4-yl)phenyl)pyrrolidin-2-one] are more than 501 nM and less than 100 nM.
With `CN1CC[C@@](O)(c2cccc(-c3nc(-c4ccnc(NCCn5cccn5)n4)cs3)c2)C1=O` [Example 198], the IC50 was more than 501 nM in experiment [1] (setting [3]) and 100 to 500 nM in experiment [2].
For the compound `CN1CCC(O)(c2ccnc(-c3nc(-c4ccnc(Nc5ccn(C)n5)n4)cs3)c2)C1=O` (single isomer, unassigned) [Example 34, 3-hydroxy-1-methyl-3-(2-(4-(2-((1-methyl-1H-pyrazol-3-yl)amino)pyrimidin-4-yl)thiazol-2-yl)pyridin-4-yl)pyrrolidin-2-one], the concentration for half-maximal inhibition (IC50) is 100 to 500 nM in experiment [1] (p-IKKa levels in L363 cells) and less than 100 nM in experiment [2].
With `CN1CC[C@@](O)(c2cccc(-c3nc(-c4ccnc(Nc5cccnc5)n4)cs3)c2)C1=O` [Example 68, (R)-3-hydroxy-1-methyl-3-(3-(4-(2-(pyridin-3-ylamino)pyrimidin-4-yl)thiazol-2-yl)phenyl)pyrrolidin-2-one], the IC50 in experiment [1] (setting [3]) and in experiment [2] was more than 501 nM throughout.
As to `CN1C(=O)[C@@](O)(c2cccc(-c3nc(-c4ccnc(Nc5ccn(C)n5)n4)cs3)c2)C[C@H]1C(F)(F)F` (relative stereo) [Example 38, (trans)-3-hydroxy-1-methyl-3-(3-(4-(2-((1-methyl-1H-pyrazol-3-yl)amino)pyrimidin-4-yl)thiazol-2-yl)phenyl)-5-(trifluoromethyl)pyrrolidin-2-one], the IC50 is 100 to 500 nM in experiment [1] (p-IKKa levels in L363 cells) and less than 100 nM in experiment [2].
Consider `CN1CC[C@@](O)(c2cccc(-c3nc(-c4ccnc(Nc5cn(C)nc5OC5CCCC5)n4)cs3)c2)C1=O` [Example 95, (R)-3-(3-(4-(2-((3-(cyclopentyloxy)-1-methyl-1H-pyrazol-4-yl)amino)pyrimidin-4-yl)thiazol-2-yl)phenyl)-3-hydroxy-1-methylpyrrolidin-2-one], for which the IC50 is 100 to 500 nM in experiment [1] (setting [3]) and less than 100 nM in experiment [2].
`CN1C(=O)[C@](O)(c2cncc(-c3csc(-c4ccnc(Nc5ccn(C)n5)n4)n3)c2)C[C@H]1C(F)(F)F` (single isomer, unassigned) [Example 61]: the IC50 in experiment [1] (setting [3]) is 100 to 500 nM; in experiment [2], less than 100 nM.
The like results for `COCCn1nc(C)cc1Nc1nccc(-c2csc(-c3cccc([C@]4(O)CCN(C)C4=O)c3)n2)n1` [Example 107, (R)-3-hydroxy-3-(3-(4-(2-((1-(2-methoxyethyl)-3-methyl-1H-pyrazol-5-yl)amino)pyrimidin-4-yl)thiazol-2-yl)phenyl)-1-methylpyrrolidin-2-one] were, in that order, more than 501 nM and more than 501 nM.
On to `CN1CC[C@@](O)(c2cccc(-c3nc(-c4ccnc(NCCC(C)(C)O)n4)cs3)c2)C1=O` [Example 239], for which the IC50 was more than 501 nM in experiment [1] (setting [3]) and 100 to 500 nM in experiment [2].
